In US20200405868A1, “GEL-FORMING POLYPEPTIDES” (priority 2018, published 2020):
Where a SMILES comes first, the peptide text is derived from it. [ ]: non-standard residue; d: D form. The star is where a group is joined. dPhe(4-Cl) = N[C@H](Cc1ccc(Cl)cc1)C(=O)O; d2Nal = N[C@H](Cc1ccc2ccccc2c1)C(=O)O; Palmitoyl = CCCCCCCCCCCCCCCC(=O)*; dCit = NC(=O)NCCC[C@@H](N)C(=O)O; d3Pal = N[C@H](Cc1cccnc1)C(=O)O; AEEA = NCCOCCOCC(=O)O

Assays:
[1] = target: T1, GnRH receptor (GnRHR or LHRHR) (Homo sapiens, UniProt P30968); test: GnRHR calcium flux assay (Discoverx), antagonistic; type: cell-based; settings: for IC50: LHRH-stimulated
T1 sequence (P30968 1-328): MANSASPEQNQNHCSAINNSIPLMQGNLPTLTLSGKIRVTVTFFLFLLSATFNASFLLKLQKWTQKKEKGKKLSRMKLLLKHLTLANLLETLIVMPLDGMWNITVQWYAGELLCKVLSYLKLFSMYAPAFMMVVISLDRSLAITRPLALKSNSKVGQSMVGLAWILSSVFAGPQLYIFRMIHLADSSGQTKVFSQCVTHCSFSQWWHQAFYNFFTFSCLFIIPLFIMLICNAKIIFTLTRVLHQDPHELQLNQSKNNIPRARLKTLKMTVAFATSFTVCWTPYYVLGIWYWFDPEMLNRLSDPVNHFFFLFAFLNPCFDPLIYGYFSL
Source text: To study the bioactivities of conjugated and mutated peptides, we employed in vitro receptor-activation assays with cultured cells expressing recombinant melanocortin receptor 1 (MC1R), melanocortin receptor 4 (MC4R), CRH receptor 2 (CRHR2), PTH receptor 1 (PTHR1), or kappa opioid receptor (OPRK1). The agonistic activities toward MC1R, MC4R, CRHR2, PTHR1, and OPRK1 were assyed with an MC1R cAMP assay, an MC4R cAMP assay, a CRHR2 cAMP assay, a PTHR1 cAMP assay and an OPRK1 cAMP assay from Discoverx Inc. (Fremont, Calif.), respectively. The antagonistic activities toward bradykinin receptor 2 (BDKRB2) and GnRH receptor (GnRHR or LHRHR) were assayed with a BDKRB2 arrestin assay and a GnRHR calcium flux assay from Discoverx, respectively.
For the analysis of calcium flux, cell lines were expanded from freezer stocks and seeded in a total volume of 20 μL into black-walled, clear-bottom, Poly-D-lysine coated 384-well microplates and incubated at 37 C for the appropriate time prior to testing. Assays were performed in 1× Dye Loading Buffer consisting of 1× Dye, 1× Additive A and 2.5 mM Probenecid in HBSS/20 mM Hepes. Cells were loaded with dye prior to testing. Media was aspirated from cells and replaced with 20 μL Dye Loading Buffer. Cells were incubated for 30-60 minutes at 37 C. For agonist determination, cells were incubated with sample to induce response. After dye loading, cells were removed from the incubator and 10 μL HBSS/20 mM Hepes was added. Vehicle was included in the buffer when performing agonist dose curves to define the EC80 for antagonist assays. Cells were incubated for 30 minutes at room temperature in the dark to equilibrate plate temperature. Intermediate dilution of sample stocks was performed to generate 4× sample in assay buffer. Compound agonist activity was measured on a FLIPR Tetra (MDS), and calcium mobilization was monitored for 2 minutes and 10 μL 4× sample in HBSS/20 mM Hepes was added to the cells 5 seconds into the assay.
For antagonist determination, cells were pre-incubated with sample followed by agonist challenge at the EC80 concentration. Intermediate dilution of sample stocks was performed to generate 3× sample in assay buffer. After dye loading, cells were removed from the incubator and 10 μL 3× sample was added. Cells were incubated for 30 minutes at room temperature in the dark to equilibrate plate temperature. Vehicle concentration was 1%. Compound antagonistic activity was measured on a FLIPR Tetra (MDS), and calcium mobilization was monitored for 2 minutes and 10 μL EC80 agonist in HBSS/20 mM Hepes was added to the cells 5 seconds into the assay. The compound activity was analyzed using a CBIS data analysis suite (ChemInnovation, CA), and percentage activity is calculated using the following formula: % Activity=100%×(mean RFU of test sample−mean RFU of vehicle control)/(mean MAX RFU control ligand−mean RFU of vehicle control). For antagonist assays, percentage inhibition is calculated using the following formula: % Inhibition=100%×(1−(mean RFU of test sample−mean RFU of vehicle control)/(mean RFU of EC80 control−mean RFU of vehicle control)).

[2] = Compound gel-forming ability in water (visual inspection, tube tapping assay, tilted tube assay); type: physicochemical; settings: for gel formation in aqueous solution, 6% / propensity to form gels, chimeric or mutated polypeptides, 6%: 6% w/w; for gel formation in aqueous solution, 11% / propensity to form gels, chimeric or mutated polypeptides, 11%: 11% w/w;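 for all read-outs here: peptides mixed with de-ionized water at about 22-25 °C, judged after 20 min by eye plus tube tapping (10 taps, moves counted) and 90° tilt mobility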
CRH receptor 2 (CRHR2) = target: T2, CRH receptor 2 (CRHR2) (Homo sapiens, UniProt Q13324); test: CRHR2 cAMP assay (Discoverx), agonistic; type: cell-based
T2 sequence (Q13324 1-411): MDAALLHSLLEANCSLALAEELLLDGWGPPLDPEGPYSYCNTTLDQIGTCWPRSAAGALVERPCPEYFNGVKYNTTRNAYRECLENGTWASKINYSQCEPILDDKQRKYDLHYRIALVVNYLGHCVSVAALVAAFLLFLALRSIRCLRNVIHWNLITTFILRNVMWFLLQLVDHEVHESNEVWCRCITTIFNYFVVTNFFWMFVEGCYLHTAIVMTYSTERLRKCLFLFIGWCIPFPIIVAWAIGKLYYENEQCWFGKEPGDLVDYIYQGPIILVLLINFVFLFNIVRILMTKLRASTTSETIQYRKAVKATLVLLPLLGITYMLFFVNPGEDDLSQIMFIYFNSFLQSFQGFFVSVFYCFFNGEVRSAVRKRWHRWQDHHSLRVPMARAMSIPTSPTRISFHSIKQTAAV
Method: The agonistic activities toward MC1R, MC4R, CRHR2, PTHR1, and OPRK1 were assyed with an MC1R cAMP assay, an MC4R cAMP assay, a CRHR2 cAMP assay, a PTHR1 cAMP assay and an OPRK1 cAMP assay from Discoverx Inc. (Fremont, Calif.), respectively. The antagonistic activities toward bradykinin receptor 2 (BDKRB2) and GnRH receptor (GnRHR or LHRHR) were assayed with a BDKRB2 arrestin assay and a GnRHR calcium flux assay from Discoverx, respectively.
For the analysis of Gs-coupled cAMP production, cAMP Hunter cell lines were expanded from freezer stocks, and cells were seeded in a total volume of 20 μL into white walled, 384-well microplates and incubated at 37 C for the appropriate time prior to testing. The cAMP modulation was determined using the DiscoverX HitHunter cAMP XS+ assay. For agonistic activity determination, cells were incubated with sample to induce response. Media was aspirated from cells and replaced with 15 μL 2:1 HBSS/10 mM Hepes: cAMP XS+ Ab reagent. Intermediate dilution of sample stocks was performed to generate 4× sample in assay buffer, and 5 μL of 4× sample was added to cells and incubated at 37 C or room temperature for 30 or 60 minutes. Vehicle concentration was 1%. The compound activity was analyzed using a CBIS data analysis suite (ChemInnovation, CA). For Gs-coupled agonistic assays, percentage activity is calculated using the following formula: % Activity=100%×(mean RLU of test sample−mean RLU of vehicle control)/(mean RLU of MAX control−mean RLU of vehicle control).

| Compound | Max Activity % of positive control [1] | gel formation in aqueous solution, 6% ([2]; Table 3) | gel formation in aqueous solution, 11% ([2]; Table 3) | Max Activity % of positive control (CRH receptor 2 (CRHR2)) | IC50 [1] [nM] | propensity to form gels, chimeric or mutated polypeptides, 6% ([2]; Table 5) | propensity to form gels, chimeric or mutated polypeptides, 11% ([2]; Table 5) | other results |
| --- | --- | --- | --- | --- | --- | --- | --- | --- |
| Palmitoyl-SSPHSY[AEEA]IVLSLDVPIGLLQILLEQARARAAREQATTNARILARVGHC-NH2 [SEQ ID NO:230] | – | – | AS/IS (AS/IS for aqueous solution or insoluble) | 100 % of positive control | – | – | AS/IS | gel formation at 20% w/w ([2]; 20% w/w in water): semisolid or liquid gel; gel formation in aqueous solution, 20% ([2]; Table 3, 20% w/w): SS (SS for semisolid gel); propensity to form gels, chimeric or mutated polypeptides, 20% ([2]; Table 5, 20% w/w): SS (An ability to form semisolid gel is represented by an SS) |
| CC(=O)N[C@H](Cc1ccc2ccccc2c1)C(=O)N[C@H](Cc1ccc(Cl)cc1)C(=O)N[C@H](Cc1cccnc1)C(=O)N[C@@H](CO)C(=O)N[C@@H](Cc1ccc(O)cc1)C(=O)N[C@H](CCCNC(N)=O)C(=O)N[C@@H](CC(C)C)C(=O)N[C@@H](CCCNC(=N)N)C(=O)N1CCC[C@H]1C(=O)N[C@H](C)C(N)=O [Cetrorelix, reference compound] (Ac-[d2Nal][dPhe(4-Cl)][d3Pal]SY[dCit]LRP[dA]-NH2) | 91.4 % of positive control | – | – | – | 0.08 | – | – | – |

More lines, main results first:

| Max Activity % of positive control [1] | gel formation in aqueous solution, 6% ([2]; Table 3) | gel formation in aqueous solution, 11% ([2]; Table 3) | Max Activity % of positive control (CRH receptor 2 (CRHR2)) | Compound | IC50 [1] [nM] | propensity to form gels, chimeric or mutated polypeptides, 6% ([2]; Table 5) | propensity to form gels, chimeric or mutated polypeptides, 11% ([2]; Table 5) | other results |
| --- | --- | --- | --- | --- | --- | --- | --- | --- |
| 109 % of positive control | – | – | – | CCCCCCCCCCCCCCCC(=O)N[C@@H](Cc1c[nH]cn1)C(=O)N[C@@H](CO)C(=O)N[C@@H](Cc1ccc(O)cc1)C(=O)N[C@H](Cc1ccc2ccccc2c1)C(=O)N[C@H](Cc1ccc(Cl)cc1)C(=O)N[C@H](Cc1cccnc1)C(=O)N[C@@H](CO)C(=O)N[C@@H](Cc1ccc(O)cc1)C(=O)N[C@H](CCCNC(N)=O)C(=O)N[C@@H](CC(C)C)C(=O)N[C@@H](CCCNC(=N)N)C(=O)N1CCC[C@H]1C(=O)N[C@H](C)C(N)=O [SEQ ID NO:203, Pal-HSY-(D-Nal)-(D-Cpa)-(D-Pal)-SY-(D-Cit)-LRP-(D-Ala)-NH2] (Palmitoyl-HSY[d2Nal][dPhe(4-Cl)][d3Pal]SY[dCit]LRP[dA]-NH2) | < 0.51 | – | – | – |
| – | SS (SS for semisolid gel) | SS (SS for semisolid gel) | 78 % of positive control | CCCCCCCCCCCCCCCC(=O)N[C@@H](CCCCN)C(=O)N[C@@H](CO)C(=O)N[C@@H](Cc1ccc(O)cc1)C(=O)N[C@@H](CO)C(=O)N[C@@H](CC(C)C)C(=O)N[C@@H](CC(=O)O)C(=O)N[C@H](C(=O)N1CCC[C@H]1C(=O)N[C@H](C(=O)N[C@@H](CC(N)=O)C(=O)N[C@H](C(=O)N[C@@H](CCSC)C(=O)N[C@@H](CC(N)=O)C(=O)N[C@@H](CC(C)C)C(=O)N[C@@H](CC(C)C)C(=O)N[C@@H](Cc1ccccc1)C(=O)N[C@@H](CC(N)=O)C(=O)N[C@H](C(=O)N[C@@H](C)C(=O)N[C@@H](CCCCN)C(=O)N[C@@H](C)C(=O)N[C@@H](CCCCN)C(=O)N[C@@H](CC(N)=O)C(=O)N[C@@H](CC(C)C)C(=O)N[C@@H](CCCNC(=N)N)C(=O)N[C@@H](C)C(=O)N[C@@H](CCC(N)=O)C(=O)N[C@@H](C)C(=O)N[C@@H](C)C(=O)N[C@@H](C)C(=O)N[C@@H](CC(N)=O)C(=O)N[C@@H](C)C(=O)N[C@@H](Cc1c[nH]cn1)C(=O)N[C@@H](CC(C)C)C(=O)N[C@@H](CCSC)C(=O)N[C@@H](C)C(=O)N[C@@H](CCC(N)=O)C(=O)N[C@H](C(N)=O)[C@@H](C)CC)[C@@H](C)CC)[C@@H](C)CC)[C@@H](C)O)C(C)C [SEQ ID NO:231] (Palmitoyl-KSYSLDVPTNIMNLLFNIAKAKNLRAQAAANAHLMAQI-NH2) | – | SS (An ability to form semisolid gel is represented by an SS) | SS (An ability to form semisolid gel is represented by an SS) | EC50 (CRH receptor 2 (CRHR2)): 5.7 nM |
| 135 % of positive control | SS (SS for semisolid gel) | SS (SS for semisolid gel) | – | CCCCCCCCCCCCCCCC(=O)N[C@@H](CCCCN)C(=O)N[C@H](C(=O)N[C@@H](CCC(N)=O)C(=O)N[C@@H](CCCCN)C(=O)N[C@@H](CC(C)C)C(=O)N[C@@H](CO)C(=O)N[C@@H](C)C(=O)N1CCC[C@H]1C(=O)N[C@H](C(=O)N[C@@H](CC(=O)O)C(=O)N1CCC[C@H]1C(=O)N[C@@H](CO)C(=O)N[C@@H](CO)C(=O)N1CCC[C@H]1C(=O)N[C@@H](Cc1c[nH]cn1)C(=O)N[C@@H](CO)C(=O)N[C@@H](Cc1ccc(O)cc1)C(=O)NCCOCCOCC(=O)N[C@H](Cc1ccc2ccccc2c1)C(=O)N[C@H](Cc1ccc(Cl)cc1)C(=O)N[C@H](Cc1cccnc1)C(=O)N[C@@H](CO)C(=O)N[C@@H](Cc1ccc(O)cc1)C(=O)N[C@H](CCCNC(N)=O)C(=O)N[C@@H](CC(C)C)C(=O)N[C@@H](CCCNC(=N)N)C(=O)N1CCC[C@H]1C(=O)N[C@H](C)C(N)=O)C(C)C)C(C)C [SEQ ID NO:202] | – | SS (An ability to form semisolid gel is represented by an SS) | SS (An ability to form semisolid gel is represented by an SS) | gel formation at 6% w/w ([2]; 6% w/w in water): semisolid gel; gel formation at 11% w/w ([2]; 11% w/w in water): semisolid gel; propensity to form gels, chimeric or mutated polypeptides, 3% ([2]; Table 5, 3% w/w): AS/IS |
